In patent US8394952B2 (Vertex Pharmaceuticals Incorporated, priority 2006, dated 2013):

What follows are compounds tested against Plk1 (Homo sapiens, UniProt P53350) (assay: biochemical).
Chain of Plk1 (P53350 20-338): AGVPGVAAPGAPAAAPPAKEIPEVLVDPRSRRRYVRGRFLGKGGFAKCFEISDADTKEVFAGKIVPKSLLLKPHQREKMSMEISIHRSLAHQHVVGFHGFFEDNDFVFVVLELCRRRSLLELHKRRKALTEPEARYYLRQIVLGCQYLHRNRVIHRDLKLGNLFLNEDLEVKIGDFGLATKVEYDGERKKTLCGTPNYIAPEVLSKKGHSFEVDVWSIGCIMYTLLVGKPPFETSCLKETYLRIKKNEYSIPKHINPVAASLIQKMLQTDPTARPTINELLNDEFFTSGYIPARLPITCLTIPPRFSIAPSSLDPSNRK

Row | SMILES | Ki [nM]
1 | CN1C(=O)C(C)(C)CN(C2CCCC2)c2nc(Nc3cccc(-c4cc[nH]n4)c3)ncc21 [Compound I-137, 2-(3-(1H-pyrazol-3-yl)phenylamino)-9-cyclopentyl-8,9-dihydro-5,7,7-trimethyl-5H-pyrimido[4,5-b][1,4]diazepin-6(7H)-one] | 10 to 100
2 | COc1cc(C(=O)N[C@H]2CCN(C(C)C)C2)ccc1Nc1ncc2c(n1)N(C1CCCC1)CC(C)(C)C(=O)N2C [Compound I-73, 4-(9-cyclopentyl-6,7,8,9-tetrahydro-5,7,7-trimethyl-6-oxo-5H-pyrimido[4,5-b][1,4]diazepin-2-ylamino)-N—((S)-1-isoipropylpyrrolidin-3-yl)-3-methoxybenzamide] | < 10
3 | CN1C(=O)C(C)(C)CN(C2CCCC2)c2nc(Nc3ccc4c(c3)CC(=O)N4)ncc21 [Compound I-45, 2-(2-oxoindolin-5-ylamino)-9-cyclopentyl-8,9-dihydro-5,7,7-trimethyl-5H-pyrimido[4,5-b][1,4]diazepin-6(7H)-one] | 10 to 100
4 | CNC(=O)c1ccc(Nc2ncc3c(n2)N(Cc2ccccc2)CC(C)(C)C(=O)N3C)c(OC)c1 [Compound I-122, 4-(9-benzyl-6,7,8,9-tetrahydro-5,7,7-trimethyl-6-oxo-5H-pyrimido[4,5-b][1,4]diazepin-2-ylamino)-3-methoxy-N-methylbenzamide] | 10 to 100
5 | COc1cc(C(=O)NCCN2CCCC2)ccc1Nc1ncc2c(n1)N(C1CCCC1)CC(C)(C)C(=O)N2C [Compound I-34, 4-(9-cyclopentyl-6,7,8,9-tetrahydro-5,7,7-trimethyl-6-oxo-5H-pyrimido[4,5-b][1,4]diazepin-2-ylamino)-3-methoxy-N-(2-(pyrrolidin-1-yl)ethyl)benzamide] | < 10
6 | CN1C(=O)C(C)(C)CN(C2CCCC2)c2nc(Nc3cccc(C(=O)NC4CCOCC4)c3)ncc21 [Compound I-141, 3-(9-Cyclopentyl-6,7,8,9-tetrahydro-5,7,7-trimethyl-6-oxo-5H-pyrimido[4,5-b][1,4]diazepin-2-ylamino)-N-(tetrahydro-2H-pyran-4-yl)benzamide] | 10 to 100
7 | CC(=O)N1CCc2cc(Nc3ncc4c(n3)N(C3CCCC3)CC(C)(C)C(=O)N4C)ccc21 [Compound I-79, 2-(1-acetylindolin-5-ylamino)-9-cyclopentyl-8,9-dihydro-5,7,7-trimethyl-5H-pyrimido[4,5-b][1,4]diazepin-6(7H)-one] | 10 to 100
8 | COc1cc(C(=O)NC2CCN(C(=O)OC(C)(C)C)CC2)ccc1Nc1ncc2c(n1)N(C1CCCC1)CCC(=O)N2C [Compound I-5, 4-(9-cyclopentyl-6,7,8,9-tetrahydro-5-methyl-6-oxo-5H-pyrimido[4,5-b][1,4]diazepin-2-ylamino)-3-methoxy-N-[1-(tert-butoxycarbonyl)piperidin-4-yl]benzamide] | < 10
9 | CN1C(=O)C(C)(C)CN(C2CCCC2)c2nc(Nc3cccn4ncnc34)ncc21 [Compound I-92, 2-([1,2,4]triazolo[1,5-a]pyridin-8-ylamino)-9-cyclopentyl-8,9-dihydro-5,7,7-trimethyl-5H-pyrimido[4,5-b][1,4]diazepin-6(7H)-one] | 10 to 100
10 | CNC(=O)c1ccc(Nc2ncc3c(n2)N(C2CCCC2)C[C@@H](C)C(=O)N3C)c(OC)c1 [Compound I-18, 4-((R)-9-cyclopentyl-6,7,8,9-tetrahydro-5,7-dimethyl-6-oxo-5H-pyrimido[4,5-b][1,4]diazepin-2-ylamino)-3-methoxy-N-methylbenzamide] | < 10
11 | CN1C(=O)Cc2cc(Nc3ncc4c(n3)N(C3CCCC3)CC(C)(C)C(=O)N4C)ccc21 [Compound I-125, 2-(1-methyl-2-oxoindolin-5-ylamino)-9-cyclopentyl-8,9-dihydro-5,7,7-trimethyl-5H-pyrimido[4,5-b][1,4]diazepin-6(7H)-one] | 10 to 100
12 | COc1cc(C(=O)NC2CCN(C)CC2)ccc1Nc1ncc2c(n1)N(C1CCCC1)C[C@@H](C)C(=O)N2C [Compound I-22, 4-((R)-9-cyclopentyl-6,7,8,9-tetrahydro-5,7-dimethyl-6-oxo-5H-pyrimido[4,5-b][1,4]diazepin-2-ylamino)-3-methoxy-N-(1-methylpiperidin-4-yl)benzamide] | < 10
13 | CN1C(=O)C(C)(C)CN(C2CCCC2)c2nc(Nc3ccc(-n4cncn4)cc3)ncc21 [Compound I-49, 2-(4-(1H-1,2,4-triazol-1-yl)phenylamino)-9-cyclopentyl-8,9-dihydro-5,7,7-trimethyl-5H-pyrimido[4,5-b][1,4]diazepin-6(7H)-one] | 10 to 100
14 | COc1cc(C(=O)N[C@@H]2CCN(C)C2)ccc1Nc1ncc2c(n1)N(C1CCCC1)CC(C)(C)C(=O)N2C [Compound I-26, 4-(9-cyclopentyl-6,7,8,9-tetrahydro-5,7,7-trimethyl-6-oxo-5H-pyrimido[4,5-b][1,4]diazepin-2-ylamino)-3-methoxy-N—((R)-1-methylpyrrolidin-3-yl)benzamide] | < 10

The remaining lines, values ahead:

Row | Ki [nM] | SMILES
15 | < 10 | COc1cc(C(=O)N2CC(F)(C3CC3)C2)ccc1Nc1ncc2c(n1)N(C1CCCC1)CC(C)(C)C(=O)N2C [Compound I-208, 9-cyclopentyl-2-(4-(3-cyclopropyl-3-fluoroazetidine-1-carbonyl)-2-methoxyphenylamino)-5,7,7-trimethyl-8,9-dihydro-5H-pyrimido[4,5-b][1,4]diazepin-6(7)-one]
16 | < 10 | CCNC(=O)c1ccc(Nc2ncc3c(n2)N(C2CCCC2)CC(C)(C)C(=O)N3C)c(OC)c1 [Compound I-219, 4-(9-cyclopentyl-5,7,7-trimethyl-6-oxo-6,7,8,9-tetrahydro-5H-pyrimido[4,5-b][1,4]diazepin-2-ylamino)-N-ethyl-3-methoxybenzamide]
17 | < 10 | COc1cc(C(=O)Nc2ccnc(Cl)c2)ccc1Nc1ncc2c(n1)N(C1CCCC1)CC(C)(C)C(=O)N2C [Compound I-227, N-(2-chloropyridin-4-yl)4-(9-cyclopentyl-5,7,7-trimethyl-6-oxo-6,7,8,9-tetrahydro-5H-pyrimido[4,5-b][1,4]diazepin-2-ylamino)-3-methoxybenzamide]
18 | 10 to 100 | CN1C(=O)C(C)(C)CN(C2CCCC2)c2nc(Nc3cccc(C(=O)NC4CN(C(=O)OC(C)(C)C)C4)c3)ncc21 [Compound I-143, 3-[3-(9-Cyclopentyl-5,7,7-trimethyl-6-oxo-6,7,8,9-tetrahydro-5H-pyrimido[4,5-b][1,4]diazepin-2-ylamino)-benzoylamino]-azetidine-1-carboxylic acid tert-butyl ester]
19 | < 10 | COc1cc(C(=O)NCCc2ccccc2)ccc1Nc1ncc2c(n1)N(C1CCCC1)CC(C)(C)C(=O)N2C [Compound I-203, 4-(9-cyclopentyl-5,7,7-trimethyl-6-oxo-6,7,8,9-tetrahydro-5H-pyrimido[4,5-b][1,4]diazepin-2-ylamino)-3-methoxy-N-phenethylbenzamide]
20 | < 10 | COc1cc(C(=O)NCC2CC2(F)F)ccc1Nc1ncc2c(n1)N(C1CCCC1)CC(C)(C)C(=O)N2C (centres unmarked) [Compound I-245, 4-(9-cyclopentyl-5,7,7-trimethyl-6-oxo-6,7,8,9-tetrahydro-5H-pyrimido[4,5-b][1,4]diazepin-2-ylamino)-N-((2,2-difluorocyclopropyl)methyl)-3-methoxybenzamide]
21 | 10 to 100 | CC(=O)Nc1cc(Nc2ncc3c(n2)N(C2CCCC2)CC(C)(C)C(=O)N3C)ccc1C [Compound I-162, N-(5-(9-cyclopentyl-6,7,8,9-tetrahydro-5,7,7-trimethyl-6-oxo-5H-pyrimido[4,5-b][1,4]diazepin-2-ylamino)-2-methylphenyl)acetamide]
22 | 10 to 100 | CN1C(=O)C(C)(C)CN(C2CCCC2)c2nc(Nc3cccc(N4CCCC4=O)c3)ncc21 [Compound I-149, 2-(3-(2-oxopyrrolidin-1-yl)phenylamino)-9-cyclopentyl-8,9-dihydro-5,7,7-trimethyl-5H-pyrimido[4,5-b][1,4]diazepin-6(7H)-one]
23 | < 10 | CN1CCC(C(=O)Nc2cccc(Nc3ncc4c(n3)N(C3CCCC3)CC(C)(C)C(=O)N4C)c2)CC1 [Compound I-157, N-(3-(9-cyclopentyl-6,7,8,9-tetrahydro-5,7,7-trimethyl-6-oxo-5H-pyrimido[4,5-b][1,4]diazepin-2-ylamino)phenyl)-1-methylpiperidine-4-carboxamide]
24 | 10 to 100 | CNC(=O)c1ccc(Nc2ncc3c(n2)N(c2cccc(Cl)c2)CC(C)(C)C(=O)N3C)c(OC)c1 [Compound I-161, 4-(9-(3-chlorophenyl)-6,7,8,9-tetrahydro-5,7,7-trimethyl-6-oxo-5H-pyrimido[4,5-b][1,4]diazepin-2-ylamino)-3-methoxy-N-methylbenzamide]
25 | < 10 | COc1cc(C(=O)NCCF)ccc1Nc1ncc2c(n1)N(C1CCCC1)CC(C)(C)C(=O)N2C [Compound I-279, 4-(9-cyclopentyl-5,7,7-trimethyl-6-oxo-6,7,8,9-tetrahydro-5H-pyrimido[4,5-b][1,4]diazepin-2-ylamino)-N-(2-fluoroethyl)-3-methoxybenzamide]
26 | < 10 | COc1cc(C(=O)N[C@@H](C)CO)ccc1Nc1ncc2c(n1)N(C1CCCC1)CC(C)(C)C(=O)N2C [Compound I-265]
27 | < 10 | CCC1CN(C2CCCC2)c2nc(Nc3ccc(C(=O)NC)cc3OC)ncc2N(C)C1=O (centres unmarked) [Compound I-190, 4-(9-cyclopentyl-7-ethyl-5-methyl-6-oxo-6,7,8,9-tetrahydro-5H-pyrimido[4,5-b][1,4]diazepin-2-ylamino)-3-methoxy-N-methylbenzamide]
28 | < 10 | COc1cc(C(=O)NN2CCCC2)ccc1Nc1ncc2c(n1)N(C1CCCC1)CC(C)(C)C(=O)N2C [Compound I-206, 4-(9-cyclopentyl-5,7,7-trimethyl-6-oxo-6,7,8,9-tetrahydro-5H-pyrimido[4,5-b][1,4]diazepin-2-ylamino)-3-methoxy-N-(pyrrolidin-1-yl)benzamide]
29 | < 10 | COc1cc(C(=O)NC2CCOCC2)ccc1Nc1ncc2c(n1)N(C1CC(F)(F)C1)CC(C)(C)C(=O)N2C [Compound I-171, 4-(9-(3,3-difluorocyclobutyl)-6,7,8,9-tetrahydro-5,7,7-trimethyl-6-oxo-5H-pyrimido[4,5-b][1,4]diazepin-2-ylamino)-N-(tetrahydro-2H-pyran-4-yl)-3-methoxybenzamide]
